Results on five molecules are retold here after patent publication US12629382B2, “Therapy” (Vestlandets Innovasjonsselskap AS, priority 2019, dated 2026).

One assay concerns A172 glioma cells. The assay can be described thus: Intracellular GSH, GSH-Glo assay, A172 cells. The class given is cell-based. The settings on record: Homo sapiens, 48 h, normalized to untreated control; for activity at 250 µM: A 172, 250 μM compound, read-out: Intracellular GSH level A172 250 μM; for activity at 500 µM: A 172, 500 μM compound, read-out: Intracellular GSH level A172 500 μM. As to the method: (§1) The cancer cell lines A172, A375, U87 and MCF7 were purchased from American Type Culture Collection (ATCC; Manassas, Va., USA). Cells were cultured in Dulbecco's Modified Eagle's Medium (DMEM) supplemented with 10% fetal bovine serum, 2% v/v L-glutamine, 3.2% v/v non-essential amino acids, antibiotics 2% v/v (penicillin-streptomycin), and 0.02% v/v Plasmocin at 37° C. and 5% CO2.
(§2) xCT expression of cancer cell lines was evaluated by western blotting from protein samples of cell lysates as described in Sleire et al., Oncogene 34: 5951-5959, 2015. Protein concentrations were determined by BCA assay (Thermo Fisher Scientific, USA) followed by SDS PAGE and immunoblotting using rabbit anti-xCT (Thermo Fisher Scientific) and rabbit anti-GAPDH (Abcam, Cambridge, UK) as a loading control. The compounds were dissolved in dimethylsulfoxide (DMSO) (Sigma Aldrich, Germany) and stock concentrations of 100 mM were stored at −20° C. in aliquots. Final concentrations were made in growth medium before adding to the cell monolayers.
(§3) The compounds were evaluated based on the measurement of intracellular Glutathione (GSH) which was performed by the GSH-Glo assay (Promega, Madison, WI, USA, cat #V6912) according to the manufacturer's recommended procedures. 5000 cells per well were seeded in a flat bottomed 96-well plate. After attachment to the well surface, cells were exposed to 250 μM and 500 μM of each compound for 48 h. After that, GSH-Glo reagent was added followed by short incubation and addition of luciferin detection reagent. Bioluminescence was measured using a luminometer (Victor 3 1420 multi-label counter, Perkins Elmer, Waltham, MA, USA). IC50 doses for the compounds SAS, DC10 and DC14 were determined in A172 glioma cells, using the GraphPad Prism v6 software (GraphPad Software, Inc. CA, USA). All measurements were normalized to the untreated control and were performed three times.

A further assay has as its target T1, xCT antiport (Homo sapiens, UniProt Q9UPY5).
T1 sequence (Q9UPY5 1-501): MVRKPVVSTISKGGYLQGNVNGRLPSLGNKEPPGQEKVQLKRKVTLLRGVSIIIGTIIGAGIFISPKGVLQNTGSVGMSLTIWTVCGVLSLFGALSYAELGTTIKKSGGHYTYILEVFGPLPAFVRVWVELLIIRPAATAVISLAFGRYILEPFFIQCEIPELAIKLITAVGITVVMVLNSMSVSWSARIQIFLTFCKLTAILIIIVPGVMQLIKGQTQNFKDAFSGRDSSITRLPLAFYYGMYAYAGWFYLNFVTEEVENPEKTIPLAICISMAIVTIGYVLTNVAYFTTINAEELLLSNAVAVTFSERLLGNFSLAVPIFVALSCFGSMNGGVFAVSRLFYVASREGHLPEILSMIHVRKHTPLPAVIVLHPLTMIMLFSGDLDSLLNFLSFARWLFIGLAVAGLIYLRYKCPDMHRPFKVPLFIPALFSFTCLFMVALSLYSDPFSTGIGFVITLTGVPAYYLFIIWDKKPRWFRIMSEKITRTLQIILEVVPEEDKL
T1 sequence (P08195 1-529 partner): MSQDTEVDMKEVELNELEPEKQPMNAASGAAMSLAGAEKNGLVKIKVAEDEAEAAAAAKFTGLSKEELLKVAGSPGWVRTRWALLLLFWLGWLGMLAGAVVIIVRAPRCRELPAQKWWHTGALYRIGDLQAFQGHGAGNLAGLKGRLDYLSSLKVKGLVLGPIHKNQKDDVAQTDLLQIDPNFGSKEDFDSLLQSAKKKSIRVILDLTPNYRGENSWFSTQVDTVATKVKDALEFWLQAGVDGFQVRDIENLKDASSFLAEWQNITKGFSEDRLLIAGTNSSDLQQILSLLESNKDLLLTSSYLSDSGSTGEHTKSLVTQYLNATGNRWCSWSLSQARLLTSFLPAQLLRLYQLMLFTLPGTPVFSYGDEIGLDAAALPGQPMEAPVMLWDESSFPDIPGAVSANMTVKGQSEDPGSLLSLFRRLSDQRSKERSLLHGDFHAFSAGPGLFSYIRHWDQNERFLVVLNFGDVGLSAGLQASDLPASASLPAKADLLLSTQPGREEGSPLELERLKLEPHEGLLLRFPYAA
The conditions noted are these: reported in the literature; cited from earlier work.

For a further assay, the system named is A375. The assay can be described thus: Intracellular GSH, GSH-Glo assay, A375 cells. In kind it is cell-based. The conditions noted are these: Homo sapiens, 48 h, normalized to untreated control; for activity at 250 µM: A-375, 250 μM compound, read-out: Intracellular GSH level A375 250 μM; for activity at 500 µM: A-375, 500 μM compound, read-out: Intracellular GSH level A375 500 μM. As to the method:
as §1, §2, §3

For a further assay, the system named is MCF7. Nature of the assay: Intracellular GSH, GSH-Glo assay, MCF7 cells. The class given is cell-based. The settings on record: Homo sapiens, 48 h, normalized to untreated control; for activity at 250 µM: 250 μM compound, read-out: Intracellular GSH level MCF7 250 μM; for activity at 500 µM: 500 μM compound, read-out: Intracellular GSH level MCF7 500 μM. The method, then:
as §1, §2, §3

For another assay, the system named is U87. The assay can be described thus: Intracellular GSH, GSH-Glo assay, U87 cells. The class given is cell-based. The settings on record: Homo sapiens, U-87 MG, 48 h, normalized to untreated control; for activity at 250 µM: 250 μM compound, read-out: Intracellular GSH level U87 250 μM; for activity at 500 µM: 500 μM compound, read-out: Intracellular GSH level U87 500 μM. As to the method:
as §1, §2, §3

`O=C(O)c1cc(/N=N/c2ccc(S(=O)(=O)Nc3ccccn3)cc2)ccc1O` [SAS, Sulfasalazine, reference compound]: the activity at 250 µM in the assay with A172 glioma cells came to 15%; in the assay on A375 it was 13.5%; in the assay with MCF7, 26.2%; with U87, 14%. Also, the activity at 500 µM with A172 glioma cells is 2.1%; in the assay with A375, 5.3%; in the assay with MCF7, 7.6%; in the assay on U87, 8%. Moreover, at xCT antiport, the xCT activity result is reported as “blocking the cell membrane xCT antiport”.

As for `Nc1ccc(O)c(C(=O)O)c1` [mesalazine, 5-amino-2-hydroxybenzoic acid], the xCT activity result on xCT antiport is “without xCT activity”.

On to `COc1ccc(/C=C\c2ccccc2)cc1C(=O)O` [DC03, (Z)-2-methoxy-5-styrylbenzoic acid], for which the activity at 250 µM was 77.5% in the assay with A172 glioma cells, 68.6% with A375, 94.9% in the assay on MCF7 and 87.9% in the assay on U87. Also, the activity at 500 µM was determined as 68.2% in the assay with A172 glioma cells, 47.6% with A375, 49.4% in the assay with MCF7 and 88.4% with U87.

Turning to `CSc1ccc(/C=C/c2ccc(O)c(C(=O)O)c2)cc1` [DC08, (E)-2-hydroxy-5-(4-(methylthio)styryl)benzoic acid], the activity at 250 µM with A172 glioma cells amounted to 28.8%; in the assay on A375, 25.9%; in the assay with MCF7, 21.1%; in the assay with U87 it was 51.1%. Also, the activity at 500 µM in the assay on A172 glioma cells came to 9.3%; with A375 it was 3.7%; in the assay with MCF7, 6.6%; in the assay on U87, 8.4%.

As for `Nc1ccc(S(=O)(=O)Nc2ccccn2)cc1` [sulfapyridine, 4-amino-N-(pyridin-2-yl)benzenesulfonamide], on xCT antiport, the xCT activity entry is reported as “without xCT activity”.
